Laboratory results from patent US10375962B2, “Heterocycle derivatives as pesticides” (BAYER CROPSCIENCE AKTIENGESELLSCHAFT, priority 2016, dated 2019).
Read-outs that look alike come from different tables or passages of the source.

How the values were obtained:
[1] = log P by HPLC on a reversed-phase column (C 18), EEC Directive 79/831 Annex V.A8; assay type: physicochemical; settings: for chromatographic logP: reversed-phase HPLC column (C 18)
Source text: Called log P (HCOOH) in the table.
Called log P (neutral) in the table.

[2] = tested on: adult cat fleas (Ctenocephalides felis); test: Ctenocephalides felis - in vitro contact tests with adult cat fleas; assay type: in vivo; settings: application rate 5 μg/cm^2; after 48 h
Protocol: For the coating of the test tubes, 9 mg of active compound are first dissolved in 1 ml of acetone p.a. and then diluted to the desired concentration with acetone p.a. 250 μl of the solution are distributed homogeneously on the inner walls and the base of a 25 ml test tube by turning and rocking on an orbital shaker (rocking rotation at 30 rpm for 2 h). With 900 ppm of active compound solution and internal surface area 44.7 cm^2, given homogeneous distribution, an area-based dose of 5 μg/cm^2 is achieved.
After the solvent has evaporated off, the tubes are populated with 5-10 adult cat fleas (Ctenocephalides felis), sealed with a perforated plastic lid and incubated in a horizontal position at room temperature and ambient humidity. After 48 h, efficacy is determined. To this end, the test tubes are stood upright and the fleas are knocked to the base of the tube. Fleas which remain motionless at the base or move in an uncoordinated manner are considered to be dead or moribund.
100% efficacy means that all the fleas were dead or moribund. 0% efficacy means that no fleas were harmed.

[3] = tested on: unfed adult cat fleas (Ctenocephalides felis); test: Ctenocephalides felis - oral test; assay type: in vivo; settings: application rate 100 ppm in citrated cattle blood; after 2 days
Protocol: (§1) Solvent: dimethyl sulphoxide
For the purpose of production of a suitable active compound formulation, 10 mg of active compound are mixed with 0.5 ml of dimethyl sulphoxide. Dilution with citrated cattle blood gives the desired concentration.
About 20 unfed adult cat fleas (Ctenocephalides felis) are placed into a chamber which is closed at the top and bottom with gauze. A metal cylinder whose bottom end is closed with parafilm is placed onto the chamber. The cylinder contains the blood/active compound formulation, which can be imbibed by the fleas through the parafilm membrane.
After 2 days, the kill in % is determined. 100% means that all of the fleas have been killed; 0% means that none of the fleas have been killed.

[4] = tested on: larvae of the mustard beetle (Phaedon cochleariae); test: Phaedon cochleariae - spray test; assay type: in vivo; settings: after 7 days
Protocol: (§2) Solvent: 78.0 parts by weight of acetone • • 1.5 parts by weight of dimethylformamide
(§3) Emulsifier: alkylaryl polyglycol ether
(§4) To produce a suitable active compound formulation, 1 part by weight of active compound is dissolved with the stated parts by weight of solvent and made up with water containing an emulsifier concentration of 1000 ppm until the desired concentration is attained. To produce further test concentrations, the formulation is diluted with emulsifier-containing water.
Discs of Chinese cabbage leaves (Brassica pekinensis) are sprayed with an active compound formulation of the desired concentration and, after drying, populated with larvae of the mustard beetle (Phaedon cochleariae).
After 7 days, the efficacy in % is determined. 100% means that all the beetle larvae have been killed and 0% means that none of the beetle larvae have been killed.

[5] = tested on: L1 larvae of the Australian sheep blowfly (Lucilia cuprina); test: Lucilia cuprina test; assay type: in vivo; settings: application rate 100 ppm; after 2 days
Protocol: as §1
To produce a suitable active compound formulation, 10 mg of active compound are mixed with 0.5 ml of dimethyl sulphoxide, and the concentrate is diluted with water to the desired concentration.
About 20 L1 larvae of the Australian sheep blowfly (Lucilia cuprina) are transferred into a test vessel containing minced horsemeat and the active compound formulation of the desired concentration.
After 2 days, the kill in % is determined. 100% means that all the larvae have been killed; 0% means that no larvae have been killed.

[6] = tested on: caterpillars of the armyworm (Spodoptera frugiperda); test: Spodoptera frugiperda - spray test; assay type: in vivo; settings: maize leaf discs, after 7 days
Protocol: Solvent: 78.0 parts by weight of acetone • • 1.5 parts by weight of dimethylformamide Emulsifier: alkylaryl polyglycol ether […] To produce further test concentrations, the formulation is diluted with emulsifier-containing water. Leaf discs of maize (Zea mays) are sprayed with an active compound preparation of the desired concentration and, after drying, populated with caterpillars of the armyworm (Spodoptera frugiperda).

[7] = tested on: greenhouse red spider mite (Tetranychus urticae); test: Tetranychus urticae - spray test, OP-resistant; assay type: in vivo; settings: bean leaf discs, after 6 days
Protocol: as §2, §3, §4
Discs of bean leaves (Phaseolus vulgaris) infested with all stages of the greenhouse red spider mite (Tetranychus urticae) are sprayed with an active compound formulation of the desired concentration.
After 6 days, the efficacy in % is determined. 100% means that all the spider mites have been killed; 0% means that no spider mites have been killed.

[8] = tested on: green peach aphid (Myzus persicae); test: Myzus persicae spray test (bell pepper plants); assay type: in vivo; settings: application rate 20 ppm, after 6 days
Protocol: Solvent: 14 parts by weight of dimethylformamide
as §3
To produce a suitable active compound formulation, 1 part by weight of active compound is dissolved with the stated parts by weight of solvent and made up with water containing an emulsifier concentration of 1000 ppm until the desired concentration is attained. To produce further test concentrations, the formulation is diluted with emulsifier-containing water. If the addition of ammonium salts or/and penetrants is required, these are each added in a concentration of 1000 ppm to the formulation solution.
Bell pepper plants (Capsicum annuum) severely infested with the green peach aphid (Myzus persicae) are treated by spraying with the active compound formulation in the desired concentration.
After 6 days, the kill in % is determined. 100% means that all of the aphids have been killed; 0% means that none of the aphids have been killed.

[9] = tested on: green peach aphid (Myzus persicae); test: Myzus persicae - spray test (Chinese cabbage leaf discs); assay type: in vivo; settings: after 5 days
Protocol: Solvent: 78 parts by weight of acetone • • 1.5 parts by weight of dimethylformamide Emulsifier: alkylaryl polyglycol ether
as §4
Discs of Chinese cabbage leaves (Brassica pekinensis) infested by all stages of the green peach aphid (Myzus persicae) are sprayed with an active compound formulation of the desired concentration.
After 5 days, the efficacy in % is determined. 100% means that all the aphids have been killed and 0% means that none of the aphids have been killed.

[10] = acidic range, pH 2.7, 0.1% aqueous formic acid/acetonitrile, 55° C.
[11] = neutral range, pH 7.8, 0.001 molar aqueous ammonium hydrogencarbonate/acetonitrile, 55° C.

| Structure (SMILES) | LOGP_NEUTRAL (log P (neutral)) ([1]; pH 7.8) | efficacy (fleas dead or moribund) [2] [%] | efficacy (kill) [3] [%] | efficacy ([4]; application rate 100 g/ha) [%] | efficacy ([4]; application rate 500 g/ha) [%] | LOGP_HCOOH (log P (HCOOH)) ([1]; pH 2.7) | efficacy (kill) [5] [%] | efficacy ([6]; application rate 100 g/ha) [%] | efficacy ([6]; application rate 500 g/ha) [%] | LOGP_HCOOH (log P (HCOOH)) [1, 10] | LOGP_NEUTRAL (log P (neutral)) [1, 11] | efficacy ([7]; application rate 500 g/ha) [%] | efficacy (kill) [8] [%] | chromatographic logP ([1]; acidic range, pH 2.7, 0.1% aqueous formic acid/acetonitrile, 55° C., read-out: LOGP_HCOOH (log P (HCOOH))) | chromatographic logP ([1]; neutral range, pH 7.8, 0.001 molar aqueous ammonium hydrogencarbonate/acetonitrile, 55° C., read-out: LOGP_NEUTRAL (log P (neutral))) | efficacy ([9]; application rate 100 g/ha) [%] | efficacy ([9]; application rate 500 g/ha) [%] | efficacy ([7]; application rate 100 g/ha) [%] |
| --- | --- | --- | --- | --- | --- | --- | --- | --- | --- | --- | --- | --- | --- | --- | --- | --- | --- | --- |
| CCS(=O)(=O)c1ccc(-n2cnc3nc(Cl)ccc32)nc1-c1nc2cc(C(F)(F)F)ncc2n1C [Example I-35] | 2.53 | 100 | 95 | 83 | 100 | – | – | – | – | – | – | – | – | – | – | – | – | – |
| CCS(=O)(=O)c1ccc(-n2ccc3cccnc32)nc1-c1nc2cc(C(F)(F)F)ncc2n1C [Example I-29] | 3.74 | – | – | – | – | 3.76 | 100 | 100 | 100 | – | – | – | – | – | – | – | – | – |
| CCS(=O)(=O)c1ccc(-c2cc3ccccc3n2C)nc1-c1nc2cc(C(F)(F)F)ncc2n1C [Example I-4] | 3.83 | – | – | – | – | 3.90 | 90 | – | – | – | – | – | – | – | – | – | – | – |
| CCS(=O)(=O)c1ccc(N2Cc3ccccc3C2=O)nc1-c1nc2cc(C(F)(F)F)ncc2n1C [Example I-31] | – | 100 | – | 100 | 100 | – | 100 | 100 | 100 | 3.32 | 3.28 | 90 | – | – | – | – | – | – |
| CCS(=O)(=O)c1ccc(N2Cc3cccnc3C2)nc1-c1nc2cc(C(F)(F)F)ncc2n1C [Example I-22] | – | 100 | 100 | 100 | 100 | – | 100 | 100 | 100 | 2.44 | 2.46 | – | 99 | – | – | – | – | – |
| CCS(=O)(=O)c1ccc(-c2ccc3nn(C)cc3c2)nc1-c1nc2cc(C(F)(F)F)ncc2n1C [Example I-15] | 2.58 | – | – | 100 | 100 | 2.62 | 100 | – | 100 | – | – | 90 | – | – | – | – | – | – |
| CCS(=O)(=O)c1ccc(-c2cc3cc(C#N)ccc3[nH]2)nc1-c1nc2cc(C(F)(F)F)ncc2n1C [Example I-3] | 3.08 | – | 95 | 100 | 100 | 3.18 | 100 | 100 | 83 | – | – | – | – | – | – | – | – | – |
| CCS(=O)(=O)c1ccc(N2Cc3ccccc3C2)nc1-c1nc2cc(C(F)(F)F)ncc2n1C [Example I-21] | 3.63 | 80 | 90 | – | 83 | 3.59 | 100 | 100 | 100 | – | – | – | 100 | – | – | – | – | – |
| CCS(=O)(=O)c1ccc(-n2ncc3ccc(Cl)cc32)nc1-c1nc2cc(C(F)(F)F)ncc2n1C [Example I-2, 2-[6-(6-Chloroindazol-1-yl)-3-ethylsulphonyl-2-pyridyl]-3-methyl-6-(trifluoromethyl)imidazo[4,5-c]pyridine] | – | – | – | – | – | – | – | – | – | – | – | 70 | – | 4.01 | 3.92 | – | – | – |
| CCS(=O)(=O)c1ccc(-n2cnc3ccccc32)nc1-c1nc2cc(C(F)(F)F)ncc2n1C [Example I-24] | 2.64 | 100 | 95 | – | 83 | 2.66 | – | 83 | 100 | – | – | – | – | – | – | 100 | 90 | – |
| CCS(=O)(=O)c1ccc(-n2nnc3ccccc32)nc1-c1nc2cc(C(F)(F)F)ncc2n1C [Example I-39] | 3.21 | – | – | – | – | – | – | – | – | – | – | – | – | – | – | – | – | 70 |
| CCS(=O)(=O)c1ccc(-n2nc3ccccn3c2=O)nc1-c1nc2cc(C(F)(F)F)ncc2n1C [Example I-43] | 2.31 | – | – | – | – | 2.26 | – | – | – | – | – | – | – | – | – | 90 | – | 90 |
| CCS(=O)(=O)c1ccc(-n2cnc3ccc(Cl)nc32)nc1-c1nc2cc(C(F)(F)F)ncc2n1C [Example I-33] | 3.20 | – | – | 100 | 100 | 3.25 | – | 100 | 100 | – | – | – | – | – | – | – | 90 | – |
| CCS(=O)(=O)c1ccc(-n2cnc3cc(Cl)ccc32)nc1-c1nc2cc(C(F)(F)F)ncc2n1C [Example I-17] | 3.12 | – | 100 | 100 | 100 | 3.19 | – | 100 | 100 | – | – | – | 90 | – | – | – | – | – |
